Assay results published in patent US6054455A, “Method for treating or preventing chronic nonbacterial prostatitis and prostatodynia” (Merck & Co., Inc., priority 1999, dated 2000).

Tested on: patients suffering from chronic nonbacterial prostatitis
Assay: Double-blind, placebo-controlled study of a substance P antagonist in patients suffering from chronic nonbacterial prostatitis
Assay type: in vivo, human
Conditions: 30 mg/day; assessed by immunological profile, rating scales, checklists and diminishment of the attendant disease state
Method: Double-Blind, Placebo-Controlled Study to Determine the Effect of a Substance P Antagonist on Patients Suffering from Chronic Nonbacterial Prostatitis Approximately twenty patients diagnosed as suffering from chronic nonbacterial prostatitis receive either the substance P receptor antagonist 2-(R)-(1-(R)-(3,5-bis(trifluoromethyl)-phenyl)-ethoxy)-3-(S)-(4-fluoro-phenyl)-4-(3-(5-oxo-1H,4H-1,2,4-triazolo)methyl-morpholine (30 mg/day) or a placebo. Each subject participates in 6 randomized test periods; in 3 of the test periods, each is given the substance P antagonist and in the other 3 test periods, is given a placebo. Efficacy of the test compound is assessed by reference to immunological profile, rating scales, checklists and diminishment of the attendant disease state.

`C[C@@H](O[C@H]1OCCN(Cc2n[nH]c(=O)[nH]2)[C@H]1c1ccc(F)cc1)c1cc(C(F)(F)F)cc(C(F)(F)F)c1` [2-(R)-(1-(R)-(3,5-bis(trifluoromethyl)-phenyl)-ethoxy)-3-(S)-(4-fluoro-phenyl)-4-(3-(5-oxo-1H,4H-1,2,4-triazolo)methyl-morpholine] was tested, and the “effect with respect to placebo in the treatment or prevention of chronic nonbacterial prostatitis” value was “positive effect with respect to placebo”.
